Laboratory results taken from PubChem BioAssay (NCI).
Where “and” joins values, the source holds several entries; their conditions need not be identical. Identical values can stand only once.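 Following 48 hours of exposure in 96-well plates, responses at five concentrations were used to interpolate endpoints linearly. GI50 is the concentration that inhibits growth by half. TGI marks complete inhibition of growth.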

System: SK-MEL-2 melanoma
Assay: NCI tumour cell line growth inhibition, 48 h

| Compound | GI50 | TGI |
| --- | --- | --- |
| O=C1CCCN1c1ccccc1I(=O)=O | > 100 µM | > 100 µM |
| COC(=O)C1=COC(C)C2CN3CCc4c([nH]c5ccccc45)C3CC12 (configuration not stated) | 20 µM and > 100 µM | 92.1 µM and > 100 µM |
| O=C(NCc1ccc(Cn2c(=O)sn(-c3ccccc3)c2=O)cc1)OCc1ccc2cccc(O)c2n1 | 1.46 µM | 3 µM |
| COC(c1ccc(C(C)(C)C)cc1)(c1ccc(C(C)(C)C)cc1)c1ccc(C(C)(C)C)cc1 |  | > 100 µM |
| CC(C)c1[nH]nc2c1N=C(c1ccccc1Cl)c1cc([N+](=O)[O-])ccc1N2 | 5.49 µM | 13.4 µM |
| Nc1cc2c(cc1Br)[nH]c(=O)c1ccccc12 | 3.44 µM | 11.2 µM |
| COc1ccc(-c2nccn2-c2ccc(OC)cc2)cc1 | 25.3 µM | > 73.5 µM |
| O=C(/C=C/c1ccccc1)c1ccccc1 |  | > 10 µM |
| CC(C)[C@H](O)C(=O)N[C@@H](C)C(=O)N[C@@H]1C(=O)N(C)CCc2ccccc21 | > 100 µM | > 100 µM |
| C=CC(=O)N1CN(C(=O)C=C)CN(C(=O)C=C)C1 | 5.46 µM | 47.4 µM |
| COc1ccc(-c2cnnn2-c2nonc2-n2cccc2)cc1 | 0.189 µM | 0.8 µM |
| ClC(Cl)=C1C(=C(Cl)Cl)C(Cl)(Cl)C1(Cl)Cl |  | 3.32 µM |
| C#CCOc1cccc(Nc2ncnc3c(NC(=O)C=C)cccc23)c1 | 19.8 µM | 63.7 µM |
| CO[C@H]1Nc2c(ccc(C)c2O)C(=O)N2C=C(/C=C/C(N)=O)C[C@@H]12 |  | 0.0223 µM |
| O=C(/C(=C\c1c(-c2ccccc2)[nH]c2ccccc12)S(=O)(=O)c1ccccc1)c1ccccc1 | > 100 µM | > 100 µM |
| COc1ccc(C(=O)c2cc(OC)c(OC)c(OC)c2)cc1OC |  | > 100 µM |
| CCNC(=O)/C(=C/c1ccc(OC)cc1)c1cc(OC)c(OC)c(OC)c1 |  | > 100 µM |
| CCCc1cc(=O)n2c(C(=O)Nc3ccc(Cl)cc3C)c(C(=O)Nc3ccc(F)cc3)sc2n1 | 4.13 µM | 21.9 µM |
| Cc1ccc(OCCOCCOCCOCCOc2ccc(C)n(O)c2=S)c(=S)n1O | 4.86 µM | > 100 µM |
| N[C@H](CCC(=O)N[C@@H](Cc1c[nH]c2ccccc12)C(=O)O)C(=O)O | > 100 µM | > 100 µM |
| CN(C)CCNCCN |  | > 100 µM |
| Nc1ccccc1O.O.O=C(O)C1[O][Sb][O]C1C(=O)O (configuration not stated) | 15 µM | 32.1 µM |
| O=C(c1ccco1)c1c(C(F)(F)F)n([O-])c2ccc(C(F)(F)F)cc2[n+]1=O | 1.71 µM | 3.49 µM |
| OC(c1cc(-c2ccc(C(F)(F)F)cc2)nc(C(F)(F)F)c1)C1CCCCN1 (configuration not stated) |  | 3.42 µM and 3.49 µM |
| CC(C)CC(C/C=C1/CC(CO)(COC(=O)C(C)(C)C)OC1=O)CC(C)C (configuration not stated) |  | 30.3 µM and 24.3 µM |
| O=C(Nc1cc(Nc2ncccc2-c2ncnc3nc[nH]c23)ccc1F)c1cc(C(F)(F)F)cc(C(F)(F)F)c1 | 0.355 µM | 2.41 µM |
| CCc1ccc2c(c1)C(=O)c1c-2n(CCCN=[N+]=[N-])c(=O)c2cc([N+](=O)[O-])ccc12 | > 50 µM | > 50 µM |
| CCC/C=C/C=C/C1CC(O)C(O)C(=O)C1CO (configuration not stated) |  | > 100 µM |

System: MCF7 breast
Assay: NCI tumour cell line growth inhibition, 48 h

| Compound | GI50 | TGI |
| --- | --- | --- |
| O=C1CCCN1c1ccccc1I(=O)=O | > 100 µM | > 100 µM |
| COC(=O)C1=COC(C)C2CN3CCc4c([nH]c5ccccc45)C3CC12 (configuration not stated) | 32.1 µM and > 100 µM | > 100 µM |
| O=C(NCc1ccc(Cn2c(=O)sn(-c3ccccc3)c2=O)cc1)OCc1ccc2cccc(O)c2n1 | 0.331 µM | 2.12 µM |
| COC(c1ccc(C(C)(C)C)cc1)(c1ccc(C(C)(C)C)cc1)c1ccc(C(C)(C)C)cc1 |  | > 100 µM |
| CC(C)c1[nH]nc2c1N=C(c1ccccc1Cl)c1cc([N+](=O)[O-])ccc1N2 | 4.53 µM | 24.3 µM |
| Nc1cc2c(cc1Br)[nH]c(=O)c1ccccc12 | 1.83 µM | 11.4 µM |
| COc1ccc(-c2nccn2-c2ccc(OC)cc2)cc1 | 24.4 µM | > 66.1 µM |
| O=C(/C=C/c1ccccc1)c1ccccc1 |  | > 10 µM |
| CC(C)[C@H](O)C(=O)N[C@@H](C)C(=O)N[C@@H]1C(=O)N(C)CCc2ccccc21 | > 100 µM | > 100 µM |
| C=CC(=O)N1CN(C(=O)C=C)CN(C(=O)C=C)C1 | 3.65 µM | 15.5 µM |
| COc1ccc(-c2cnnn2-c2nonc2-n2cccc2)cc1 | 0.277 µM | 60.3 µM |
| ClC(Cl)=C1C(=C(Cl)Cl)C(Cl)(Cl)C1(Cl)Cl |  | 19.2 µM |
| C#CCOc1cccc(Nc2ncnc3c(NC(=O)C=C)cccc23)c1 | 21.2 µM | > 100 µM |
| CO[C@H]1Nc2c(ccc(C)c2O)C(=O)N2C=C(/C=C/C(N)=O)C[C@@H]12 |  | 8.05 µM |
| O=C(/C(=C\c1c(-c2ccccc2)[nH]c2ccccc12)S(=O)(=O)c1ccccc1)c1ccccc1 | 5.63 µM | > 100 µM |
| COc1ccc(C(=O)c2cc(OC)c(OC)c(OC)c2)cc1OC |  | > 100 µM |
| CCNC(=O)/C(=C/c1ccc(OC)cc1)c1cc(OC)c(OC)c(OC)c1 |  | > 100 µM |
| CCCc1cc(=O)n2c(C(=O)Nc3ccc(Cl)cc3C)c(C(=O)Nc3ccc(F)cc3)sc2n1 | 4.67 µM | 33.9 µM |
| Cc1ccc(OCCOCCOCCOCCOc2ccc(C)n(O)c2=S)c(=S)n1O | < 0.01 µM | 43.6 µM |
| N[C@H](CCC(=O)N[C@@H](Cc1c[nH]c2ccccc12)C(=O)O)C(=O)O | > 100 µM | > 100 µM |
| CN(C)CCNCCN |  | > 100 µM |
| Nc1ccccc1O.O.O=C(O)C1[O][Sb][O]C1C(=O)O (configuration not stated) | 12.6 µM | 37.7 µM |
| O=C(c1ccco1)c1c(C(F)(F)F)n([O-])c2ccc(C(F)(F)F)cc2[n+]1=O | 0.307 µM | 0.872 µM |
| OC(c1cc(-c2ccc(C(F)(F)F)cc2)nc(C(F)(F)F)c1)C1CCCCN1 (configuration not stated) | 1.61 µM | 3.08 µM and 3.42 µM |
| CC(C)CC(C/C=C1/CC(CO)(COC(=O)C(C)(C)C)OC1=O)CC(C)C (configuration not stated) |  | 34.2 µM and 40.3 µM |
| O=C(Nc1cc(Nc2ncccc2-c2ncnc3nc[nH]c23)ccc1F)c1cc(C(F)(F)F)cc(C(F)(F)F)c1 | 2.65 µM | > 10 µM |
| CCc1ccc2c(c1)C(=O)c1c-2n(CCCN=[N+]=[N-])c(=O)c2cc([N+](=O)[O-])ccc12 | > 50 µM | > 50 µM |
| CCC/C=C/C=C/C1CC(O)C(O)C(=O)C1CO (configuration not stated) |  | > 100 µM |

System: A549 NSCLC
Assay: NCI tumour cell line growth inhibition, 48 h

| Compound | GI50 | TGI [µM] |
| --- | --- | --- |
| O=C1CCCN1c1ccccc1I(=O)=O | > 100 µM | > 100 |
| COC(=O)C1=COC(C)C2CN3CCc4c([nH]c5ccccc45)C3CC12 (configuration not stated) | 37.6 µM and > 100 µM | > 100 |
| O=C(NCc1ccc(Cn2c(=O)sn(-c3ccccc3)c2=O)cc1)OCc1ccc2cccc(O)c2n1 | 1.51 µM | 3.87 |
| COC(c1ccc(C(C)(C)C)cc1)(c1ccc(C(C)(C)C)cc1)c1ccc(C(C)(C)C)cc1 |  | > 100 |
| CC(C)c1[nH]nc2c1N=C(c1ccccc1Cl)c1cc([N+](=O)[O-])ccc1N2 | 5.18 µM | > 22.3 |
| Nc1cc2c(cc1Br)[nH]c(=O)c1ccccc12 | 2.91 µM | 11.4 |
| COc1ccc(-c2nccn2-c2ccc(OC)cc2)cc1 | 25.1 µM | > 80.5 |
| O=C(/C=C/c1ccccc1)c1ccccc1 |  | > 10 |
| CC(C)[C@H](O)C(=O)N[C@@H](C)C(=O)N[C@@H]1C(=O)N(C)CCc2ccccc21 | > 100 µM | > 100 |
| C=CC(=O)N1CN(C(=O)C=C)CN(C(=O)C=C)C1 | 21.2 µM | 81.7 |
| COc1ccc(-c2cnnn2-c2nonc2-n2cccc2)cc1 | 0.45 µM | > 44.8 |
| ClC(Cl)=C1C(=C(Cl)Cl)C(Cl)(Cl)C1(Cl)Cl |  | 25.7 |
| C#CCOc1cccc(Nc2ncnc3c(NC(=O)C=C)cccc23)c1 | 30.9 µM | > 100 |
| CO[C@H]1Nc2c(ccc(C)c2O)C(=O)N2C=C(/C=C/C(N)=O)C[C@@H]12 |  | > 72.3 |
